Measurements from patent US4897506A, “Isolation of alpha-l-aspartyl-l-phenylalanine methyl ester from aqueous medium” (Mitsui Toatsu Chemicals, Incorporated, priority 1987, dated 1990).
Residues, ends and D or L forms follow the SMILES beside them.

Columns and labels:
[1] = Method for Testing Solubilization: time required for completely dissolving crushed α-APM sample in water; assay type: physicochemical; conditions: 250 mg crushed sample in 250 ml purified water, 26±2° C., magnetic stirrer 350-360 rpm, stirring and standing alternated every 30 seconds
Description: Crushed α-APM sample (250 mg) is poured into 250 ml of purified water at 26±2° C. with stirring by a magnetic stirrer at 350- 360 rpm. Stirring and standing are alternately repeated for every 30 seconds and the time required for completely dissolving the sample is measured.

[2] = Hard block formation on drying; assay type: physicochemical; conditions: dry crystalline α-APM
[3] = pH; cited from earlier work
[4] = Thermal stability in solution (diketopiperazine formation); assay type: physicochemical; conditions: aqueous medium, temperatures higher than 70° C.
[5] = Solubilization of conventionally recrystallized α-APM (background); assay type: physicochemical; conditions: 250 mg in 250 ml water, room temperature
Text: α-APM purified by conventional recrystallization methods has the disadvantage of poor solubilization (rate of solution) in water.

[6] = crystallized by cooling without forced flow, Japanese Laid-Open Patent No. 177952/1983; cited from earlier work

COC(=O)[C@H](Cc1ccccc1)NC(=O)[C@@H](N)CC(=O)O [compound 7, α-L-aspartyl-L-phenylalanine methyl ester, reference compound] (H-Asp-Phe-OMe)
time required for completely dissolving the sample (solubilization test) [1]: 13.5 min

COC(=O)[C@H](Cc1ccccc1)NC(=O)[C@@H](N)CC(=O)O [compound 8, α-L-aspartyl-L-phenylalanine methyl ester, reference compound] (H-Asp-Phe-OMe)
time required for completely dissolving the sample (solubilization test) [1]: 12.5 min

COC(=O)[C@H](Cc1ccccc1)NC(=O)[C@@H](N)CC(=O)O [compound 9, α-L-aspartyl-L-phenylalanine methyl ester, reference compound] (H-Asp-Phe-OMe)
time required for completely dissolving the sample (solubilization test) [1]: 12 min

COC(=O)[C@H](Cc1ccccc1)NC(=O)[C@@H](N)CC(=O)O [α-APM, α-L-aspartyl-L-phenylalanine methyl ester] (H-Asp-Phe-OMe)
hard block formation in the dry state [2]: forms a hard block in the dry state | isoelectric point [3]: 5.6 | thermal stability in solution [4]: diketopiperazine compound is undesirably formed as by-product | time required to dissolve completely ([5]; crushed powder recrystallized from 50 vol. % aqueous methanol, stirring and standing every 30 seconds): more than 15 minutes | undissolved α-APM after 5 minutes ([5]; recrystallized from 50 vol. % aqueous methanol): a significant amount of undissolved α-APM remains even after 5 minutes | solubilization compared to conventionally crystallized product [6]: excellent solubilization as compared to conventionally crystallized product
